Assay results reported in US6610689B2, “HIV protease inhibitors based on amino acid derivatives” (priority 2001, dated 2003).
Where a name gives a salt, the structure may show the parent alone. Read-outs that look alike come from different tables or passages of the source.

Target: T1, HIV protease (Human immunodeficiency virus type 1 group M subtype B, UniProt P04585)
T1 construct: A third viral enzyme known as protease then cleaves the polyproteins
Test: Enzymatic Assay for Determining the Inhibition Constant (Ki) of Synthetic Compounds Targeting the HIV Protease (fluorometric FRET assay)
Format: biochemical
Procedure, shortened: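 Ki obtained via the Henderson equation from enzyme velocities with and without compound, accounting for substrate concentration and Km. Activity followed by FRET fluorescence from cleavage of a substrate flanked by EDANS donor and DABCYL acceptor.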

[1] = Table 1, compounds of formula I, read-out: Ki (anti-protease activity)
[2] = Anti-protease activity of Ne-amino acid substituted L-lysine derivatives and analogs of formula I, read-out: Ki

Compound	Ki [nM]	other results
Cc1ccc(S(=O)(=O)NC(Cc2c[nH]c3ccccc23)C(=NC#N)NCCCCC(C(=O)O)N(CC(C)C)S(=O)(=O)c2ccc(C)cc2)cc1 [Example 103, Nα-Isobutyl-Nα-(4-methylbenzenesulfonyl)-Nε-[N′α-(4-methylbenzenesulfonyl)-L-tryptophanyl-N-cyanoamidine]-L-lysine]	1.1	
Cc1ccc(S(=O)(=O)N(CC(C)C)[C@@H](CCCCNC(=O)[C@H](Cc2ccccc2)NS(=O)(=O)c2ccc3ccccc3c2)C(=O)O)cc1 [Example 19, Nα-Isobutyl-Nα-(4-methylbenzenesulfonyl)-Nε-[N′α-(2-naphthylsulfonyl)-L-phenylalanyl]-L-lysine]	11	
COc1ccc(NC(=O)N[C@@H](Cc2ccccc2)C(=O)NCCCC[C@@H](C(=O)O)N(CC(C)C)S(=O)(=O)c2ccc(C)cc2)cc1 [Example 196, Nα-Isobutyl-Nα-(4-methylbenzenesulfonyl)-Nε-[N′α-(4-methoxyanilinecarbonyl)-L-phenylalanyl]-L-lysine]	0.5	
COC(=O)[C@H](CCCCNC(=O)[C@H](Cc1ccccc1)NC(=O)c1ccccc1)N(CC(C)C)S(=O)(=O)c1ccc(C)cc1 [Example 70, Nα-Isobutyl-Nα-(4-methylbenzenesulfonyl)-Nε-(N′α-benzoyl-L-phenylalanyl)-L-lysine Methyl Ester]	> 300	
COc1ccc(S(=O)(=O)N(CC2CCCC2)[C@H](CO)CCCCNC(=O)[C@@H](N)Cc2c[nH]c3ccccc23)cc1 [Example 152, (2S,2′S) 2-N-Cyclopentylmethyl-2-N-(4-methoxybenzenesulfonyl)-6-N-(S-tryptophanyl)-2,6-diaminohexanol Trifluoroacetic Acid Salt]		Ki [1]: 12 nM
Cc1ccc(S(=O)(=O)N[C@@H](Cc2ccccc2)C(=O)NCCCC[C@@H](C(=O)O)N(CC(C)C)S(=O)(=O)c2ccc(C)cc2)cc1 [Example 1, Nα-Isobutyl-Nα-(4-methylbenzenesulfonyl)-Nε-[N′α-(4-methylbenzenesulfonyl)-L-phenylalanyl]-L-lysine]	1.1	
Cc1ccc(S(=O)(=O)N[C@H](Cc2ccccc2)C(=O)NCCCC[C@@H](C(=O)O)N(CC(C)C)S(=O)(=O)c2ccc(C)cc2)cc1 [Example 7, Nα-Isobutyl-Nα-(4-methylbenzenesulfonyl)-Nε-[N′α-(4-methylbenzenesulfonyl)-D-phenylalanyl]-L-lysine]	120	
Cc1ccc(S(=O)(=O)N(CC(C)C)[C@H](CO)CCCCNC(=O)[C@H](CC#N)NS(=O)(=O)c2ccccc2)cc1 [Example 188, (2S,2′S) 2-N-Isobutyl-2-N-(4-methylbenzenesulfonyl)-6-N-(N′α-benzenesulfonyl-S-cyanoalanyl)-2,6-diaminohexanol]	79	
CC(C)CN([C@@H](CCCCNC(=O)[C@H](Cc1ccccc1)NS(=O)(=O)c1cccs1)C(=O)O)S(=O)(=O)c1ccc([N+](=O)[O-])cc1 [Example 29, Nα-Isobutyl-Nα-(4-nitrobenzenesulfonyl)-Nε-[N′α-(2-thiophenesulfonyl)-L-phenylalanyl]-L-lysine]	11	
Cc1ccc(S(=O)(=O)N(CC(C)C)[C@@H](CCCCNC(=O)[C@H](Cc2ccccc2)NC(=O)N2CCCC2)C(=O)O)cc1 [Example 197, Nα-Isobutyl-Nα-(4-methylbenzenesulfonyl)-Nε-(N′α-pyrrolidinecarbonyl-L-phenylalanyl)-L-lysine]	1.7	
CC(C)CN([C@H](CO)CCCCNC(=O)[C@H](Cc1c[nH]c2ccccc12)NS(=O)(=O)c1cccs1)S(=O)(=O)c1ccc(N)cc1 [Example 166, (2S,2′S) 2-N-(4-Aminobenzenesulfonyl)-2-N-isobutyl-6-N-[N′α-(2-thiophenesulfonyl)-S-tryptophanyl]-2,6-diaminohexanol]	1	
CC(C)CN([C@H](CO)CCCCNC(=O)[C@H](Cc1c[nH]c2ccccc12)NC(=O)C(C)(C)C)S(=O)(=O)c1ccc(N)cc1 [Example 169, (2S,2′S) 2-N-(4-Aminobenzenesulfonyl)-2-N-isobutyl-6-N-(N′α-pivaloyl-S-tryptophanyl)-2,6-diaminohexanol]	1.2	
Cc1ccc(S(=O)(=O)N(CC(C)C)[C@@H](CCCCNC(=O)[C@@H](NC(=O)OC(C)(C)C)[C@@H](C)OCc2ccccc2)C(=O)O)cc1 [Example 84, Nα-Isobutyl-Nα-(4-methylbenzenesulfonyl)-Nε-(N′α-tert-butoxyearbonyl-O-benzyl-L-threonyl)-L-lysine]	163	
Nα-Isobutyl-Nα-(4-methylbenzenesulfonyl)-Nε-[N′α-(4-bromobenzenesulfonyl)-L-phenylalanyl]-L-lysine [Example 20]		Ki [2]: 19 nM
COc1ccc(S(=O)(=O)N(CC(C)C)[C@H](CO)CCCCNC(=O)[C@H](Cc2c[nH]c3ccccc23)NC(=O)OC(C)(C)C)cc1 [Example 147, (2S,2′S) 2-N-Isobutyl-2-N-(4-methoxybenzenesulfonyl)-6-N-(N′α-tert-butoxycarbonyl-S-tryptophanyl)-2,6-diaminohexanol]	16	
(2S,2′S) 2-N-Isobutyl-2-N-(4-methylbenzenesulfonyl)-6-N-(N′α-tert-butoxycarbonyl-S-4-thiazolylalanyl)-2,6-diaminohexanol [Example 137]		Ki [1]: 96 nM
CC(C)CN([C@H](CO)CCCCNC(=O)[C@H](Cc1c[nH]c2ccccc12)NC(=O)C(C)C)S(=O)(=O)c1ccc(N)cc1 [Example 184, (2S,2′S) 2-N-(4-Aminobenzenesulfonyl)-2-N-isobutyl-6-N-(N′α-isobutyryl-S-tryptophanyl)-2,6-diaminohexanol]	1.6	
Cc1ccc(S(=O)(=O)N(CC(C)C)[C@@H](CCCCNC(=O)[C@H](Cc2ccccc2)NS(=O)(=O)c2cccs2)C(=O)NN)cc1 [Example 64, Nα-Isobutyl-Nα-(4-methylbenzenesulfonyl)-Nε-[N′α-(2-thiophenesulfonyl)-L-phenylalanyl]-L-lysine Hydrazide]		Ki [2]: > 300 nM
COc1ccc(S(=O)(=O)N(CC(C)C)[C@H](CO)CCCCNC(=O)[C@H](Cc2c[nH]c3ccccc23)NC(=O)C(C)(C)C)cc1 [Example 148, (2S,2′S) 2-N-Isobutyl-2-N-(4-methoxybenzenesulfonyl)-6-N-(N′α-pivaloyl-S-tryptophanyl)-2,6-diaminohexanol]	1.9	
Cc1ccc(S(=O)(=O)N[C@@H](Cc2ccccc2)C(=O)NCCCC[C@@H](C(=O)O)N(CC(C)C)S(=O)(=O)c2ccc(N)cc2)cc1 [Example 201, Nα-(4-Aminobenzenesulfonyl)-Nα-isobutyl-Nε-[N′α-(4-methylbenzenesulfonyl)-L-phenylalanyl]-L-lysine]	4.1	
Cc1ccc(S(=O)(=O)N(CC(C)C)[C@@H](CCCCNC(=O)[C@H](Cc2ccccc2)NS(=O)(=O)c2cccs2)C(=O)NCCO)cc1 [Example 60, Nα-Isobutyl-Nα-(4-methylbenzenesulfonyl)-Nε-[N′α-(2-thiophenesulfonyl)-L-phenylalanyl]-L-lysine Ethanolamide]	> 300	
CC(=O)N[C@@H](Cc1ccccc1)C(=O)NCCCC[C@@H](C(=O)O)N(CC(C)C)S(=O)(=O)c1ccc(C)cc1 [Example 30, Nα-Isobutyl-Nα-(4-methylbenzenesulfonyl)-Nε-(N′α-acetyl-L-phenylalanyl)-L-lysine]	0.483	
CC(C)CN([C@H](CO)CCCCNC(=O)[C@H](Cc1c[nH]c2ccccc12)NS(=O)(=O)c1ccc([N+](=O)[O-])cc1)S(=O)(=O)c1ccc(N)cc1 [Example 179, (2S,2′S) 2-N-(4-Aminobenzenesulfonyl)-2-N-isobutyl-6-N-[N′α-(4-nitrobenzenesulfonyl)-S-tryptophanyl]-2,6-diaminohexanol]	32	
CC(C)CN(C(CO)CCCCNC(=O)C(Cc1c[nH]c2ccccc12)NC(=O)c1ccccc1)S(=O)(=O)c1ccc(N)cc1 [Example 186, (2S,2′S) 2-N-(4-Aminobenzenesulfonyl)-2-N-isobutyl-6-N-(N′α-benzoyl-S-tryptophanyl)-2,6-diaminohexanol]	1.7	
COc1cccc(CNCC(=O)NCCCC[C@@H](C(=O)O)N(CC(C)C)S(=O)(=O)c2ccc(C)cc2)c1OC [Example 107, Nα-Isobutyl-Nα-(4-methylbenzenesulfonyl)-Nε-[N′α-(2,3-dimethoxybenzyl)glycyl]-L-lysine]	52	
Cc1ccc(S(=O)(=O)N[C@@H](Cc2c[nH]c3ccccc23)C(=O)NCCCC[C@@H](CO)N(CC(C)C)S(=O)(=O)c2ccc(N)cc2)cc1 [Example 145, (2S,2′S) 2-N-(4-Aminobenzenesulfonyl)-2-N-isobutyl-6-N-[N′α-(4-methylbenzenesulfonyl)-S-tryptophanyl]-2,6-diaminohexanol]	1.9	
CC(C)COC(=O)N[C@@H](Cc1c[nH]c2ccccc12)C(=O)NCCCC[C@@H](CO)N(CC(C)C)S(=O)(=O)c1ccc(N)cc1 [Example 193, (2S,2′S) 2-N-(4-Aminobenzenesulfonyl)-2-N-isobutyl-6-N-(N′α-isobutoxycarbonyl-S-tryptophanyl)-2,6-diaminohexanol]	4.1	
Cc1ccc(S(=O)(=O)N(CC(C)C)[C@H](CO)CCCCNC(=O)[C@@H](N)Cc2c[nH]c3ccccc23)cc1 [Example 183, (2S,2′S) 2-N-Isobutyl-2-N-(4-methylbenzenesulfonyl)-6-N-(S-tryptophanyl)-2,6-diaminohexanol Trifluoroacetic Acid Salt]		Ki [1]: 4.4 nM
Cc1ccc(S(=O)(=O)N[C@@H](Cc2c[nH]c3ccccc23)C(=O)NCCCC[C@@H](C(=O)O)N(CC(C)C)S(=O)(=O)c2ccc(N)cc2)cc1 [Example 43, Nα-(4-Aminobenzenesulfonyl)-Nα-isobutyl-Nε-[N′α-(4-methylbenzenesulfonyl)-L-tryptophanyl]-L-lysine]	0.56	
COc1ccc(S(=O)(=O)N(CC(C)C)[C@H](CO)CCCCNC(=O)[C@H](Cc2c[nH]c3ccccc23)NC(C)=O)cc1 [Example 172, (2S,2′S) 2-N-Isobutyl-2-N-(4-methoxybenzenesulfonyl)-6-N-(N′α-acetyl-S-tryptophanyl)-2,6-diaminohexanol]	> 300	
